The results in this text go back to article PMC9250534, “Synthesis and direct assay of large macrocycle diversities by combinatorial late-stage modification at picomole scale” (Nature Communications, 2022).

Molecules are shown by their SMILES.

The experiment deals with T1, thrombin (Homo sapiens, UniProt P00734).
T1 construct: consists of two polypeptide chains of 36 (light chain) and 259 amino acid
Kind of experiment: Thrombin inhibition screen of crude macrocycle reactions (residual thrombin activity, fluorogenic substrate Z-Gly-Gly-Arg-AMC). The format is biochemical. The conditions noted are these: 10 µM macrocycle concentration; crude reactions, Library 1a-l; scaffold AA1-AA2-AA3 combined with 1-16 or '-'. As for the experimental part: As a proof-of-concept, we screened the macrocycle library for inhibitors against thrombin, which is the central blood coagulation protease and an important therapeutic target. We conducted the screen for thrombin-inhibiting macrocycles in 384-well reaction plates. Briefly, each well contained a unique macrocycle (10 μM), 5 μL of thrombin (2 nM final conc.), and subsequently, 5 µL of a fluorogenic substrate to measure the residual thrombin activity and the extent of protease inhibition.
The assays were performed in 384-well plates using Tris buffer at pH 7.4 (100 mM Tris-Cl, 150 mM NaCl, 10 mM MgCl2, 1 mM CaCl2, 0.1% w/v BSA, 0.01% v/v Triton-X100, and 0.6% v/v DMSO) using thrombin at a final concentration of 2 nM and the fluorogenic substrate Z-Gly-Gly-Arg-AMC at a final concentration of 50 μM. Thrombin (5 μL, 6 nM) in the Tris-Cl buffer described above was added to each peptide using a BioTek MultiFlo microplate dispenser, and incubated for 10 min at room temperature. […] Data was collected and exported using the Tecan Infinite M200 Pro instrument software. […] For the negative controls (20 wells containing DMSO but no macrocycle), an average slope was calculated. The percent of thrombin inhibition was calculated by dividing the slopes and multiplying the results by 100.
As to `O=C(NCCCC[C@@H]1NC(=O)[C@@H](Cc2c[nH]c3ccccc23)NC(=O)[C@H]2CCCN(C2)C(=O)CCSSCCNC1=O)c1ccccc1` [B4-W-D1/1], the “percent residual thrombin activity” value turned out to be 101.061%.

As for `CC(C)CC(=O)NCCCC[C@@H]1NC(=O)[C@@H](Cc2c[nH]c3ccccc23)NC(=O)[C@H]2CCCN(C2)C(=O)CCSSCCNC1=O` [B4-W-D1/8], the “percent residual thrombin activity” value is given as 98.2761%.

Regarding `O=C(NCCCC[C@@H]1NC(=O)[C@@H](Cc2c[nH]c3ccccc23)NC(=O)[C@H]2CCCN(C2)C(=O)CCSSCCNC1=O)c1c[nH]c(=O)cn1` [B4-W-D1/9], the “percent residual thrombin activity” value was 96.1174%.

In the case of `O=C(COc1ccccc1)NCCCC[C@@H]1NC(=O)[C@@H](Cc2c[nH]c3ccccc23)NC(=O)[C@H]2CCCN(C2)C(=O)CCSSCCNC1=O` [B4-W-D1/13], the “percent residual thrombin activity” value is reported as 97.6967%.

For `O=C(NCCCC[C@@H]1NC(=O)[C@@H](Cc2c[nH]c3ccccc23)NC(=O)[C@H]2CCCN(C2)C(=O)CCSSCCNC1=O)c1ccc(Cl)s1` [B4-W-D1/14], the “percent residual thrombin activity” value is listed as 84.8525%.

`NCCCC[C@@H]1NC(=O)[C@@H](Cc2c[nH]c3ccccc23)NC(=O)[C@H]2CCCN(C2)C(=O)CCSSCCNC1=O` [B4-W-D1/-]: the “percent residual thrombin activity” value amounted to 98.9418%.

On to `O=C(NCCCC[C@@H]1NC(=O)[C@@H](Cc2c[nH]c3ccccc23)NC(=O)[C@H]2CCCN(C2)C(=O)CCSSCCNC1=O)c1ccccc1` [B4-w-D1/1], for which the “percent residual thrombin activity” value is 105.33%.

On to `CC(C)CC(=O)NCCCC[C@@H]1NC(=O)[C@@H](Cc2c[nH]c3ccccc23)NC(=O)[C@H]2CCCN(C2)C(=O)CCSSCCNC1=O` [B4-w-D1/8], for which the “percent residual thrombin activity” value is given as 116.689%.

`O=C(NCCCC[C@@H]1NC(=O)[C@@H](Cc2c[nH]c3ccccc23)NC(=O)[C@H]2CCCN(C2)C(=O)CCSSCCNC1=O)c1c[nH]c(=O)cn1` [B4-w-D1/9]: the “percent residual thrombin activity” value is recorded as 111.618%.

Regarding `O=C(COc1ccccc1)NCCCC[C@@H]1NC(=O)[C@@H](Cc2c[nH]c3ccccc23)NC(=O)[C@H]2CCCN(C2)C(=O)CCSSCCNC1=O` [B4-w-D1/13], the “percent residual thrombin activity” value is 115.4%.

In the case of `O=C(NCCCC[C@@H]1NC(=O)[C@@H](Cc2c[nH]c3ccccc23)NC(=O)[C@H]2CCCN(C2)C(=O)CCSSCCNC1=O)c1ccc(Cl)s1` [B4-w-D1/14], the “percent residual thrombin activity” value is 105.59%.

Turning to `NCCCC[C@@H]1NC(=O)[C@@H](Cc2c[nH]c3ccccc23)NC(=O)[C@H]2CCCN(C2)C(=O)CCSSCCNC1=O` [B4-w-D1/-], the “percent residual thrombin activity” value was 108.066%.

With `O=C1CCSSCCNC(=O)[C@H](Cc2c[nH]c3ccccc23)NC(=O)[C@H](CCCCNC(=O)c2ccc(Cl)s2)NC(=O)c2cccc(c2)CN1` [B5-D1-W/14], the “percent residual thrombin activity” value is given as 107.115%.

Consider `CC[C@H](C)[C@@H]1NC(=O)[C@H](CCCNC(=O)c2cnccn2)NC(=O)c2cccc(c2)CNC(=O)CCSSCCNC1=O` [B5-D2-I/2], for which the “percent residual thrombin activity” value was 109.077%.

As for `CC[C@H](C)[C@@H]1NC(=O)[C@H](CCCNC(=O)c2cc(C)on2)NC(=O)c2cccc(c2)CNC(=O)CCSSCCNC1=O` [B5-D2-I/3], the “percent residual thrombin activity” value is 102.465%.

On to `CC[C@H](C)[C@@H]1NC(=O)[C@H](CCCNC(=O)c2c[nH]c(=O)[nH]c2=O)NC(=O)c2cccc(c2)CNC(=O)CCSSCCNC1=O` [B5-D2-I/11], for which the “percent residual thrombin activity” value worked out at 108.374%.

For `CC[C@H](C)[C@@H]1NC(=O)[C@H](CCCNC(=O)Cc2c[nH]c3ccccc23)NC(=O)c2cccc(c2)CNC(=O)CCSSCCNC1=O` [B5-D2-I/12], the “percent residual thrombin activity” value is 103.906%.

Regarding `CC[C@H](C)[C@@H]1NC(=O)[C@H](CCCNC(=O)COc2ccccc2)NC(=O)c2cccc(c2)CNC(=O)CCSSCCNC1=O` [B5-D2-I/13], the “percent residual thrombin activity” value is 106.564%.

For `CC[C@H](C)[C@@H]1NC(=O)[C@H](CCCNC(=O)c2snnc2C)NC(=O)c2cccc(c2)CNC(=O)CCSSCCNC1=O` [B5-D2-I/15], the “percent residual thrombin activity” value was determined as 106.982%.
